# Assay results published in PubChem BioAssay AID1259407 (Chemical Carcinogenesis Research Information System (CCRIS), 2018).
# The source made the active and inactive calls. The rule behind the calls is not given here.
# System: CCRIS mutagenicity, Ames/micronucleus/aberration tests
# Assay: CCRIS mutagenicity studies
smiles,measurement,setting,value
CCCCC(CC)COC(=O)c1ccccc1C(=O)OCC(CC)CCCC (stereo not drawn),mutagenic call,"Test System: AMES SALMONELLA TYPHIMURIUM, Strain/Indicator: TA1535, Metabolic Activation: RAT LIVER S-9, PHENOBARBITAL AND BETA-NAPHTHOFLAVONE, Method: PREINCUBATION",inactive; negative
same,mutagenic call,"Test System: AMES SALMONELLA TYPHIMURIUM, Strain/Indicator: TA1535, Metabolic Activation: RAT, LIVER, S-9, AROCLOR 1254 (10%), Method: PREINCUBATION",inactive; negative
same,mutagenic call,"Test System: AMES SALMONELLA TYPHIMURIUM, Strain/Indicator: TA1535, Metabolic Activation: RAT, LIVER, S-9, AROCLOR 1254, Method: STANDARD PLATE",inactive; negative
same,mutagenic call,"Test System: AMES SALMONELLA TYPHIMURIUM, Strain/Indicator: TA1537, Metabolic Activation: HAMSTER, LIVER, S-9, AROCLOR 1254 (10%), Method: PREINCUBATION",inactive; negative
same,mutagenic call,"Test System: AMES SALMONELLA TYPHIMURIUM, Strain/Indicator: TA1537, Metabolic Activation: NONE, Method: FLUCTUATION (MICROTITER)",inactive; negative
same,mutagenic call,"Test System: AMES SALMONELLA TYPHIMURIUM, Strain/Indicator: TA1537, Metabolic Activation: NONE, Method: PREINCUBATION",inactive; negative
same,mutagenic call,"Test System: AMES SALMONELLA TYPHIMURIUM, Strain/Indicator: TA1537, Metabolic Activation: NONE, Method: STANDARD PLATE",inactive; negative
same,mutagenic call,"Test System: AMES SALMONELLA TYPHIMURIUM, Strain/Indicator: TA1537, Metabolic Activation: RAT LIVER S-9, AROCLOR 1254, Method: FLUCTUATION (MICROTITER)",inactive; negative
same,mutagenic call,"Test System: AMES SALMONELLA TYPHIMURIUM, Strain/Indicator: TA1537, Metabolic Activation: RAT LIVER S-9, PHENOBARBITAL AND BETA-NAPHTHOFLAVONE, Method: PREINCUBATION",inactive; negative
same,mutagenic call,"Test System: AMES SALMONELLA TYPHIMURIUM, Strain/Indicator: TA1537, Metabolic Activation: RAT, LIVER, S-9, AROCLOR 1254 (10%), Method: PREINCUBATION",inactive; negative
same,mutagenic call,"Test System: AMES SALMONELLA TYPHIMURIUM, Strain/Indicator: TA1537, Metabolic Activation: RAT, LIVER, S-9, AROCLOR 1254, Method: STANDARD PLATE",inactive; negative
same,mutagenic call,"Test System: AMES SALMONELLA TYPHIMURIUM, Strain/Indicator: TA1538, Metabolic Activation: NONE, Method: STANDARD PLATE",inactive; negative
same,mutagenic call,"Test System: AMES SALMONELLA TYPHIMURIUM, Strain/Indicator: TA1538, Metabolic Activation: RAT, LIVER, S-9, AROCLOR 1254, Method: STANDARD PLATE",inactive; negative
same,mutagenic call,"Test System: AMES SALMONELLA TYPHIMURIUM, Strain/Indicator: TA2638, Metabolic Activation: RAT LIVER S-9, PHENOBARBITAL AND 5,6-BENZOFLAVONE, Method: STANDARD PLATE",inactive; negative
same,mutagenic call,"Test System: AMES SALMONELLA TYPHIMURIUM, Strain/Indicator: TA7001, Metabolic Activation: NONE, Method: FLUCTUATION (MICROTITER)",inactive; negative
same,mutagenic call,"Test System: AMES SALMONELLA TYPHIMURIUM, Strain/Indicator: TA7001, Metabolic Activation: RAT LIVER S-9, AROCLOR 1254, Method: FLUCTUATION (MICROTITER)",inactive; negative
same,mutagenic call,"Test System: AMES SALMONELLA TYPHIMURIUM, Strain/Indicator: TA7002, Metabolic Activation: NONE, Method: FLUCTUATION (MICROTITER)",inactive; negative
same,mutagenic call,"Test System: AMES SALMONELLA TYPHIMURIUM, Strain/Indicator: TA7002, Metabolic Activation: RAT LIVER S-9, AROCLOR 1254, Method: FLUCTUATION (MICROTITER)",inactive; negative
same,mutagenic call,"Test System: AMES SALMONELLA TYPHIMURIUM, Strain/Indicator: TA7003, Metabolic Activation: NONE, Method: FLUCTUATION (MICROTITER)",inactive; negative
same,mutagenic call,"Test System: AMES SALMONELLA TYPHIMURIUM, Strain/Indicator: TA7003, Metabolic Activation: RAT LIVER S-9, AROCLOR 1254, Method: FLUCTUATION (MICROTITER)",inactive; negative
same,mutagenic call,"Test System: AMES SALMONELLA TYPHIMURIUM, Strain/Indicator: TA7004, Metabolic Activation: NONE, Method: FLUCTUATION (MICROTITER)",inactive; negative
same,mutagenic call,"Test System: AMES SALMONELLA TYPHIMURIUM, Strain/Indicator: TA7004, Metabolic Activation: RAT LIVER S-9, AROCLOR 1254, Method: FLUCTUATION (MICROTITER)",inactive; negative
same,mutagenic call,"Test System: AMES SALMONELLA TYPHIMURIUM, Strain/Indicator: TA7005, Metabolic Activation: NONE, Method: FLUCTUATION (MICROTITER)",inactive; negative
same,mutagenic call,"Test System: AMES SALMONELLA TYPHIMURIUM, Strain/Indicator: TA7005, Metabolic Activation: RAT LIVER S-9, AROCLOR 1254, Method: FLUCTUATION (MICROTITER)",inactive; negative
same,mutagenic call,"Test System: AMES SALMONELLA TYPHIMURIUM, Strain/Indicator: TA7006, Metabolic Activation: NONE, Method: FLUCTUATION (MICROTITER)",inactive; negative
same,mutagenic call,"Test System: AMES SALMONELLA TYPHIMURIUM, Strain/Indicator: TA7006, Metabolic Activation: RAT LIVER S-9, AROCLOR 1254, Method: FLUCTUATION (MICROTITER)",inactive; negative
same,mutagenic call,"Test System: E. COLI, Strain/Indicator: WP2 (PKM101), Metabolic Activation: RAT LIVER S-9, PHENOBARBITAL, AND 5,6-BENZOFLAVONE, Method: STANDARD PLATE",inactive; negative
same,mutagenic call,"Test System: E. COLI, Strain/Indicator: WP2 UVRA (PKM101), Metabolic Activation: RAT LIVER S-9, PHENOBARBITAL AND 5,6-BENZOFLAVONE, Method: STANDARD PLATE",inactive; negative
same,mutagenic call,"Test System: E.COLI, Strain/Indicator: WP2UVRA, Metabolic Activation: NONE, Method: PREINCUBATION",inactive; negative
same,mutagenic call,"Test System: E.COLI, Strain/Indicator: WP2UVRA, Metabolic Activation: RAT LIVER S-9, PHENOBARBITAL AND BETA-NAPHTHOFLAVONE, Method: PREINCUBATION",inactive; negative
same,mutagenic call,"Test System: MOUSE LYMPHOMA, Strain/Indicator: L5178Y (TK+/+)/OUABAIN, Metabolic Activation: NONE, Method: SUSPENSION/PLATE",inactive; negative
same,mutagenic call,"Test System: MOUSE LYMPHOMA, Strain/Indicator: L5178Y (TK+/+)/OUABAIN, Metabolic Activation: RAT LIVER S-9, AROCLOR 1254, Method: SUSPENSION/PLATE",inactive; negative
same,mutagenic call,"Test System: MOUSE LYMPHOMA, Strain/Indicator: L5178Y (TK+/-)/TRIFLUROTHYMIDINE, Metabolic Activation: NONE, Method: SUSPENSION/PLATE",inactive; negative
same,mutagenic call,"Test System: MOUSE LYMPHOMA, Strain/Indicator: L5178Y (TK+/-)/TRIFLUROTHYMIDINE, Metabolic Activation: RAT LIVER S-9, AROCLOR 1254, Method: SUSPENSION/PLATE",inactive; negative
same,mutagenic call,"Test System: MOUSE LYMPHOMA, Strain/Indicator: L5178Y (TK+/TK-), Metabolic Activation: NONE, Method: SUSPENSION/PLATE",inactive; negative
same,mutagenic call,"Test System: MOUSE LYMPHOMA, Strain/Indicator: L5178Y (TK+/TK-), Metabolic Activation: RAT, LIVER, S-9, AROCLOR 1254, Method: SUSPENSION/PLATE",active; positive
same,mutagenic call,"Test System: MOUSE LYMPHOMA, Strain/Indicator: L5178Y (TK+/TK-), Metabolic Activation: RAT, LIVER, S-9, Method: SUSPENSION/PLATE",inactive; negative
same,mutagenic call,"Test System: UDS RAT HEPATOCYTES, Strain/Indicator: THY INCORP, Metabolic Activation: NONE, Method: LIQUID SCINTILLATION COUNTING",active; positive
